Results taken from patent US8394781B2, “Disaccharides for the treatment of tendons, ligaments, and bones” (Bioiberica, S.A., priority 2007, dated 2013).

Tested on: human tenocytes
Experiment: Human tenocyte adhesion and proliferation, in vitro culture, manual count in ten microscopic fields
Format: cell-based
Conditions: IGF-1 10 ng/mL, same increase reached after 9 hours, FIG. 2
Procedure: The objective was to determine the effect of compound Ic on human tenocyte proliferation and adhesion in an in vitro culture model, since a drug stimulating tenocyte proliferation and adhesion could be especially useful in the treatment or repair of tendons.
For comparison purposes, the effect of the growth factor IGF-1 on human tenocyte proliferation and adhesion in the same type of in vitro culture model was determined.
The increase of adhered tenocytes was quantified by means of manual count in ten microscopic fields.
Human tendon explants (of approximately 3-5 mm) were cultured in a culture flask with culture medium formed by 10% FCS, DMEM/Ham-12 (50/50) (Dulbecco's Modified Eagle's Medium with Ham-12), 50 IU/mL of penicillin/streptomycin, […] of ascorbic acid, 2.5 μg/mL of amphotericin B, 1% glutamine and 1% essential amino acids. […]
Twelve-well plates were prepared with 15,000 tenocytes/well and they were incubated with 10% FCS (fetal calf serum). On the following day, the cells were washed three times with serum-free culture medium (0.5% FCS) and were incubated for 30 minutes with serum-free culture medium, after which the control cultures were counted (time “0 hours”). […]
In all the assays, the cells were incubated for 71 hours and each well was evaluated in each time period by means of a manual count in 10 microscopic fields. […]

For “IGF-1: growth factor IGF-1 (Insulin-like Growth Factor 1), used for comparison at 10 ng/mL”, the “increase in the number of adhered tenocytes with respect to the control” value was about 45%.
